Test results from article PMC8398255, “Synthesis of 3,5-Bis(trifluoromethyl)phenyl-Substituted Pyrazole Derivatives as Potent Growth Inhibitors of Drug-Resistant Bacteria” (Molecules, 2021).
Converted amounts (≈) assume the structure as drawn. Where two headings read alike, the source gives them in different places.

How the values were obtained:
[1] = tested on: Bacillus subtilis ATCC 6623 (Bs); assay: MIC, microdilution (CLSI); type: cell-based; settings: ATCC6623
In short: (§1)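 Visual turbidity scoring after 18–20 h at 35 ℃ defined the MIC in two-fold CAMHB dilution series topping at 32 µg/mL. Fresh bacterial cultures were used on different days across three independent experiments, each run at least in duplicate.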

[2] = tested on: E. faecalis ATCC 29212 (Ef12); assay: MIC, microdilution (CLSI); type: cell-based; settings: Enterococcus faecalis, ATCC29212
In short: as §1

[3] = tested on: E. faecalis ATCC 51299 (Ef99); assay: MIC, microdilution (CLSI); type: cell-based; settings: Enterococcus faecalis, ATCC 51299 / VRE
In short: as §1

[4] = tested on: E. faecium ATCC 700221 (Ef21); assay: MIC, microdilution (CLSI); type: cell-based; settings: Enterococcus faecium, ATCC 700221 / VRE
In short: as §1

[5] = tested on: S. aureus ATCC 25923 (Sa23); assay: MIC, microdilution (CLSI); type: cell-based; settings: Staphylococcus aureus, ATCC25923
In short: as §1

[6] = tested on: S. aureus ATCC 33591 (Sa91); assay: MIC, microdilution (CLSI); type: cell-based; settings: Staphylococcus aureus, ATCC33591
In short: as §1

[7] = tested on: S. aureus ATCC 33592 (Sa92); assay: MIC, microdilution (CLSI); type: cell-based; settings: Staphylococcus aureus, ATCC33592
In short: as §1

[8] = tested on: S. aureus ATCC 700699 (Sa99); assay: MIC, microdilution (CLSI); type: cell-based; settings: Staphylococcus aureus, ATCC700699
In short: as §1

[9] = tested on: S. aureus BAA-2312 (Sa12); assay: MIC, microdilution (CLSI); type: cell-based; settings: Staphylococcus aureus, BAA2312
In short: as §1

[10] = tested on: S. epidermidis ATCC 700296 (Se); assay: MIC, microdilution (CLSI); type: cell-based; settings: Staphylococcus epidermidis, ATCC700296
In short: as §1

[11] = tested on: E. faecalis biofilms (Efs12); assay: Biofilm eradication (MBEC), Calgary Biofilm Device; type: cell-based
Procedure: (§2) Minimum biofilm eradication concentration (MBEC) was determined using a Calgary device using the protocol reported elsewhere with some modifications. The Calgary device is a 96-well plate with a lid containing pegs to establish biofilms. Bacteria from an overnight plate culture were suspended to a 0.5 McFarland turbidity, then diluted 1:100 in a CAMHB containing 1% glucose which was inoculated in the 96 wells (150 μL in each well) and incubated at 35 °C for 24 h to establish biofilm on the pegs. The lid was then removed, washed with PBS in a fresh 96 well plate, then transferred to another 96-well plate containing 2-fold serial dilutions of the test compounds dissolved in PBS (150 μL total volume in each well). This plate was called the “challenge plate”. The challenge plate was incubated for an additional 24 h, and the lid was transferred to the next 96-well plate containing fresh CAMHB media with 1% glucose (180 μL) and further incubated for 24 h. […] All the compounds were tested in a minimum of three independent experiments.

[12] = Cytotoxicity assay (resazurin); type: cell-based; settings: human, HEK-293 cells, 24 h treatment, n = 3
Procedure: The human embryonic kidney cell line (HEK-293) was used to assess the cytotoxicity of the antibiotics as described by us previously. HEK-293 cells were cultured in Dulbecco’s modified eagle’s medium (DMEM) containing 10% Fetal Bovine Serum (FBS) and incubated at 37 °C in the presence of 5% carbon dioxide. HEK-293 cells were cultured in 96-well black plates with 6000 cells per well for the first 24 h followed by treatment with a range of concentrations of antibiotics dissolved in DMSO for the next 24 h. After the second period of incubation, resazurin (40 µL of 0.15 mg/mL) was added to each well and incubated for an additional 4 h. Reduction of resazurin was measured fluorometrically with excitation wavelength at 560 nm and emission at 590 nm using BioTek™ Cytation™5 plate reader. Percentage viability of HEK cells for each range of concentrations was calculated, taking the fluorescence value of the wells treated with DMSO as a reference, using Microsoft® Excel® for Office 365 MSO. IC50 values were computed using the calculated percentage viability values through data processing in Graphpad Prism 7 for Windows, Version 7.04.

[13] = tested on: S. aureus ATCC 700699 persisters; assay: Persister viability assay; type: cell-based, Staphylococcus aureus; settings: 32× MIC, 4 h; for activity against persisters: S. aureus ATCC 700699 persisters
Procedure: (§3) The persister assay was performed following the methodology described previously. Briefly, for persister viability assays, S. aureus ATCC 700699 strain (MRSA) was grown to stationary phase in CAMHB medium by shaking at 200 rpm in a shaking incubator for 24 h at 35 °C. […] After incubation, 400 µL aliquot was washed, serially diluted in PBS, and plated in blood agar plate for viable colony count.

[14] = tested on: S. aureus and E. faecalis biofilms; assay: Biofilm eradication, S. aureus and E. faecalis; type: cell-based
Procedure: as §2

[15] = tested on: S. aureus biofilms (Sa23); assay: Biofilm eradication (MBEC), Calgary Biofilm Device; type: cell-based, Staphylococcus aureus
Procedure: as §2

[16] = tested on: MRSA (S. aureus ATCC 700699); assay: Time Kill Assay; type: cell-based, Staphylococcus aureus; settings: 4× MIC, positive controls
Gram-positive bacteria = assay: MIC across the tested strains; type: cell-based; settings: against several bacterial strains
Procedure: Compounds were dissolved in dimethyl sulfoxide (DMSO) to achieve a starting concentration of 32 µg/mL as described by us previously. Compounds were further diluted two-fold across the 96-well honeycomb plate columns in cation adjusted Mueller Hinton broth (CAMHB), and bacterial culture was added. Plates were incubated for 18–20 h at 35 ℃ before determining the minimum concentrations at which wells had no visible turbidity to the naked eye. The MIC values were determined from at least a duplicate result obtained from three independent experiments using fresh bacterial cultures on different days.

[17] = tested on: MRSA persisters (S. aureus ATCC 700699); assay: Persister Time Kill Assay; type: cell-based, Staphylococcus aureus; settings: for decrease of persister cells: 2× MIC, 8 h; for persisters eradicated: within 8 h at all the 4× MIC, 8× MIC and 16× MIC concentrations
Procedure: as §3
Likewise, for persister time-kill assays, the persister cells were treated at varied concentrations and incubated with shaking. At the start and every 2 h until 8 h, 400 µL samples were washed, serially diluted, and plated on blood agar using the 6 × 6 drop plate method. Plates were incubated for 18–20 h at 35 °C, before the colonies were counted to calculate CFU/mL. All the treatments were performed in triplicates.

[18] = Bs, Bacillus subtilis ATCC 6623, n = 3, read-out: MIC
[19] = Ef12, antibiotic susceptible E. faecalis ATCC 29212, n = 3, read-out: MIC
[20] = Ef99, vancomycin-resistant (VRE) E. faecalis ATCC 51299, n = 3, read-out: MIC
[21] = Ef21, vancomycin-resistant (VRE) E. faecium ATCC 700221, n = 3, read-out: MIC
[22] = Sa23, antibiotic susceptible S. aureus ATCC 25923, n = 3, read-out: MIC
[23] = Sa91, methicillin-resistant S. aureus ATCC 33591, n = 3, read-out: MIC
[24] = Sa92, methicillin-resistant S. aureus ATCC 33592, n = 3, read-out: MIC
[25] = Sa99, methicillin-resistant S. aureus ATCC 700699, n = 3, read-out: MIC
[26] = Sa12, methicillin-resistant S. aureus BAA-2312, n = 3, read-out: MIC
[27] = Se, S. epidermidis ATCC 700296, n = 3, read-out: MIC

Row | Compound | MIC [1, 18] | MIC [2, 19] | MIC [3, 20] | MIC [4, 21] | MIC [5, 22] | MIC [6, 23] | MIC [7, 24] | MIC [8, 25] | MIC [9, 26] | MIC [10, 27] | MBEC [11] | IC50 at 24 h [12] | activity against persisters [13] | MBEC values [14] | MBEC [15] | reduction of the population of persisters compared to the positive controls [13] | decrease of persister cells [17] | persisters eradicated [17] | other results
1 | O=C(O)c1ccc(-n2cc(CNc3cc(Cl)c(F)c(Cl)c3)c(-c3cc(C(F)(F)F)cc(C(F)(F)F)c3)n2)cc1 [Compound 28, 4-[3-[3,5-Bis(trifluoromethyl)phenyl]-4-[(3,5-dichloro-4-fluoro-anilino)methyl]pyraz-ol-1-yl] benzoic acid] | 1 µg/mL (≈ 1.69 µM) | 2 µg/mL (≈ 3.38 µM) | 2 µg/mL (≈ 3.38 µM) | 1 µg/mL (≈ 1.69 µM) | 1 µg/mL (≈ 1.69 µM) | 1 µg/mL (≈ 1.69 µM) | 1 µg/mL (≈ 1.69 µM) | 1 µg/mL (≈ 1.69 µM) | 1 µg/mL (≈ 1.69 µM) | 2 µg/mL (≈ 3.38 µM) | 2 µg/mL | 7 to 8 µg/mL (≈ 11.8 to 13.5 µM) | very effective | ≥ 1 µg/mL | – | – | – | – | –
2 | CN[C@H](CC(C)C)C(=O)N[C@H]1C(=O)N[C@@H](CC(N)=O)C(=O)N[C@H]2C(=O)N[C@H]3C(=O)N[C@H](C(=O)N[C@H](C(=O)O)c4cc(O)cc(O)c4-c4cc3ccc4O)[C@H](O)c3ccc(c(Cl)c3)Oc3cc2cc(c3O[C@@H]2O[C@H](CO)[C@@H](O)[C@H](O)[C@H]2O[C@H]2C[C@](C)(N)[C@H](O)[C@H](C)O2)Oc2ccc(cc2Cl)[C@H]1O [V, Vancomycin, reference compound] | – | – | – | – | – | – | – | – | – | – | >32 µg/mL | – | failed to demonstrate persister kill activity | – | >32 µg/mL | – | – | – | MIC ([1]; Bacillus subtilis): 0.25 µg/mL (≈ 0.173 µM); MIC [2]: 2 µg/mL (≈ 1.38 µM); MIC [3]: > 32 µg/mL; MIC [4]: > 32 µg/mL; MIC [5]: 1 µg/mL (≈ 0.69 µM); MIC [6]: 2 µg/mL (≈ 1.38 µM); MIC [7]: 2 µg/mL (≈ 1.38 µM); MIC [8]: 4 µg/mL (≈ 2.76 µM); MIC [9]: 0.5 µg/mL (≈ 0.345 µM); MIC [10]: 2 µg/mL (≈ 1.38 µM); time to eliminate >99.9% CFUs [16]: 8 h
3 | O=C(O)c1ccc(-n2cc(CNc3ccc(Oc4ccccc4)cc3)c(-c3cc(C(F)(F)F)cc(C(F)(F)F)c3)n2)cc1 [Compound 5, 4-[3-[3,5-Bis(trifluoromethyl)phenyl]-4-[(4-phenoxyanilino)methyl]pyrazol-1-yl] benzoic acid] | 2 µg/mL (≈ 3.35 µM) | 2 µg/mL (≈ 3.35 µM) | 1 µg/mL (≈ 1.67 µM) | 1 µg/mL (≈ 1.67 µM) | 1 µg/mL (≈ 1.67 µM) | 1 µg/mL (≈ 1.67 µM) | 1 µg/mL (≈ 1.67 µM) | 2 µg/mL (≈ 3.35 µM) | 2 µg/mL (≈ 3.35 µM) | 4 µg/mL (≈ 6.69 µM) | >32 µg/mL | 9.15 µg/mL (≈ 15.3 µM) | partial activity | – | >32 µg/mL | – | – | – | MIC (Gram-positive bacteria): 1 µg/mL (≈ 1.67 µM); biofilm eradication property [14]: did not show any appreciable biofilm eradication property
4 | O=C(O)c1ccc(-n2cc(CNc3ccc(Br)cc3)c(-c3cc(C(F)(F)F)cc(C(F)(F)F)c3)n2)cc1 [Compound 11, 4-[3-[3,5-Bis(trifluoromethyl)phenyl]-4-[(4-bromoanilino)methyl]pyrazol-1-yl] benzoic acid] | 1 µg/mL (≈ 1.71 µM) | 2 µg/mL (≈ 3.42 µM) | 1 µg/mL (≈ 1.71 µM) | 1 µg/mL (≈ 1.71 µM) | 2 µg/mL (≈ 3.42 µM) | 1 µg/mL (≈ 1.71 µM) | 1 µg/mL (≈ 1.71 µM) | 2 µg/mL (≈ 3.42 µM) | 1 µg/mL (≈ 1.71 µM) | 2 µg/mL (≈ 3.42 µM) | 4 µg/mL | 7 to 8 µg/mL (≈ 12 to 13.7 µM) | very effective | – | – | 4 log values | 1 log value | more than 3 log values | –
5 | O=C(O)c1ccc(-n2cc(CNc3ccc(Br)c(Cl)c3F)c(-c3cc(C(F)(F)F)cc(C(F)(F)F)c3)n2)cc1 [Compound 29, 4-[3-[3,5-Bis(trifluoromethyl)phenyl]-4-[(4-bromo-3-chloro-2-fluoro-anilino)methyl]pyrazol-1-yl] benzoic acid] | 2 µg/mL (≈ 3.14 µM) | 2 µg/mL (≈ 3.14 µM) | 2 µg/mL (≈ 3.14 µM) | 1 µg/mL (≈ 1.57 µM) | 2 µg/mL (≈ 3.14 µM) | 1 µg/mL (≈ 1.57 µM) | 1 µg/mL (≈ 1.57 µM) | 2 µg/mL (≈ 3.14 µM) | 1 µg/mL (≈ 1.57 µM) | 2 µg/mL (≈ 3.14 µM) | 2 µg/mL | 7 to 8 µg/mL (≈ 11 to 12.6 µM) | very effective | ≥ 1 µg/mL | – | 4 log values | ~2 log value | more than 3 log values | –
